Test results taken from patent US8535740B2, “Compositions from Nigella sativa” (priority 2002, dated 2013).

Tests used:
[1] = tested on: AMPK; experiment: AMPK activation (pT172-AMPK) in C2C12 myocytes; type: cell-based, mouse; settings: 1 mM
Description: Cell culture—Mouse C2C12 myoblasts were obtained from American Type Culture Collection (Manassas, Va.), and were maintained in Dulbecco's modified Eagle's medium (DMEM) supplemented with 10% fetal bovine serum at 37° C. under a humidified atmosphere of 5% CO2.
C2C12 cells were seeded at an initial density of 6×10^4 cells/cm^2 in 24-well plates. For two days, the cells were allowed grow to reach confluence. Following confluence, the cells were forced to differentiate into myocytes by culturing in DMEM supplemented with 2% horse serum for seven days.
Treatment—On Day 8 to 10 post differentiation, C2C12 myocytes were incubated in serum-free DMEM plus 0.5% BSA (bovine serum albumin) for three hours. […]
Measuring activated AMPKa—pT^172-AMPK was quantified using the Biosource AMPK Immunoassay Kit (Camarillo, Calif.) without modification. Protein content of the cell lysates was determined with the Active Motif fluorescent protein assay reagent (Carlsbad Calif., Hoefelschweiger, B. K., Duerkop, A., and Wolfbeis, O. S. Novel type of general protein assay using a chromogenic and fluorogenic amine-reactive probe. Anal Biochem 2005, 344, 122-9). A Packard Fluorocount spectrofluorometer (Model #BF 10000, Meridan, Conn.) was used for protein determination and a MEL312e BIO-KINETICS READER (Bio-Tek Instruments, Winooski, Vt.) was used for quantification of pT^172-AMPK. […]

[2] = tested on: Caco-2 monolayers; experiment: t10-CLA-induced loss of transepithelial electrical resistance in Caco-2 monolayers; type: cell-based, human; settings: 50 μM t10-CLA stimulus, positive control set to 100; each material at its tabulated concentration (TQ 5.0, NS8 0.11, NS9 0.99, NS10 0.012, NSSpent#2 0.0005 μg TQ equivalents/mL; Spent#1 5 μg/mL)
Excerpt: Caco-2 Cells-The protocol for growing and differentiation the human Caco-2 colon andenocarcinoma cells was a modification of Protocol 3 as described by Yamashita et al. [[…]., and Furuyama, Y. (2002) New and better protocols for a short-term Caco-2 cell culture system, J Pharm Sci 91, 669-679]. Caco-2 Human Colon Adenocarcinoma cells were obtained from ATCC (Rockville, Md.; catalog #HTB-37) and maintained in a growth media: DMEM (Dulbecco's Modified Eagles Medium 1×) containing L-glutamine, glucose; Cellgro catalog #35-010CV with the following additions: (1) Penicillin (5,000 IU/mL)/Streptomycin (5,000 μg/mL) Cellgro catalog #30-001C1, (2) 10% FBS-Fetal Bovine Serum, Characterized; Hyclone catalog #SH30071.3, and (3) 1% NEAA-Non Essential Amino Acids; Cellgro catalog #25-025-CI; cells were cultured at 37 C in a humidified air-5% CO2 atmosphere in T175 flasks. Differentiation of Caco-2 cells to intestinal epithelial cells-BIOCOAT^R HTS Caco-2 Assay System kits (Becton Dickinson, N.J.; catalog #354801) consisting of 24-well fibrillar collagen coated inserts and feeder trays were used in all experiments and plated as follows. Media was removed from the T175 flasks and cells were washed with 10 mLs PBS (phosphate buffered saline 1× without Ca^++, without Mg^++; Cellgro #25-053-CI). PBS was removed and 5 mL of Trypsin/EDTA (1×, 0.25% Trypsin/2.21 mM EDTA in HBSS; Cellgro #25-053-CI) were added to the flask and the flask placed at 37 C until cells were visibly floating, approximately 3-5 minutes. Five mL of growth media were added to the flask to neutralize the trypsin. This solution was then transferred to a sterile 50 mL tube. Eight μL were sampled and placed in a hemocytometer for counting under a microscope. Five-hundred μL of cell solution were placed in the upper chamber of each insert so that the final density per well was at least 6.6×10^5 cells/cm^2. Thirty-five mL of growth media were then added to the feeder tray and plate incubated at 37 C with 5% CO2 and 100% humidity for 20-24 hours. […]

[3] = tested on: adiponectin secretion in 3T3-L1 adipocytes; experiment: Adiponectin secretion in t10-CLA-stimulated 3T3-L1 adipocytes; type: cell-based, murine
Description: Treatment—Test materials were added four hours prior to the addition of t10-CLA at a concentration of 50 μM. Following overnight incubation, the supernatant media were sampled for determination of IL-6 and adiponectin. Adiponectin assay—The adiponectin secreted into the medium was quantified using the Mouse Adiponectin Quantikine® Immunoassay kit with no modifications (R&D Systems, Minneapolis, Minn.). […] Statistical Calculations and Interpretation—Test materials and were assayed in duplicate, while solvent controls were replicated eight times. IL-6 and adiponectin secretion were represented relative to the IL-6 and adiponectin secretion of the t10-CLA only controls as the IL-6 and adiponectin index and differences among the means were analyzed by the student's t-test assuming a five percent probability of a type I error (Excel; Microsoft, Redmond, Wash.).

[4] = tested on: IL-6 secretion in 3T3-L1 adipocytes; experiment: IL-6 secretion in t10-CLA-stimulated 3T3-L1 adipocytes; type: cell-based, murine
Description: Treatment—Test materials were added four hours prior to the addition of t10-CLA at a concentration of 50 μM. Following overnight incubation, the supernatant media were sampled for determination of IL-6 and adiponectin. Interleukin-6 assay—The IL-6 secreted into the medium in response to […] stimulation was quantified using the Quantikine® Mouse IL-6 Immunoassay kit with no modifications (R&D Systems, Minneapolis, Minn.). […] All supernatant media samples were diluted 1:30 for quantification. Statistical Calculations and Interpretation—Test materials and were assayed in duplicate, while solvent controls were replicated eight times. IL-6 and adiponectin secretion were represented relative to the IL-6 and adiponectin secretion of the t10-CLA only controls as the IL-6 and adiponectin index and differences among the means were analyzed by the student's t-test assuming a five percent probability of a type I error (Excel; Microsoft, Redmond, Wash.).

[5] = relative to t10-CLA only control (100), 50 μM t10-CLA, overnight, each material at its tabulated concentration

Compound | increase in pT172-AMPK relative to DMSO negative controls ([1]; average over ten independent assays, 95% CI=1.26-2.21) [fold] | AMPK activation ([1]; in assays run with N. sativa supercritical CO2 extracts) [fold] | Relative Loss of TEER [2] | reduction in adiponectin secretion relative to controls ([3]; 50 μM) [%] | Adiponectin Index [3, 5] | increase in IL-6 secretion relative to controls ([4]; 50 μM) [fold] | IL-6 Index [4, 5]
NC(=O)c1ncn([C@@H]2O[C@H](CO)[C@@H](O)[C@H]2O)c1N [AICAR, 5-Aminoimidazole-4-carboxamide ribonucleoside] | 1.67 | 1.45 | – | – | – | – | –
CCCCC/C=C\C=C\CCCCCCCCC(=O)O [t10-CLA, trans-10, cis12-Conjugated Linoleic Acid] | – | – | 100 ± 5.81 | 65 | 100 ± 14 | 8 | 100 ± 11
